Data set [1] relates to PA-I lectin/adhesin expression in P. aeruginosa. The class given is cell-based, Pseudomonas aeruginosa.
Data set [2] has as its system P. aeruginosa PAO1 and 27853. The class given is cell-based, Pseudomonas aeruginosa.
In the next data set the test system is HPAECs. The data set can be described thus: Intracellular calcium (Fura-2). The class given is cell-based, human. As to conditions: 1 U/ml thrombin; 1 μM S1P. On the technique in general: A change in cytosolic calcium serves as a functional read-out for many receptors and channels.
In data set [3] the test system is Endothelial cells. The data set can be described thus: Pretreatment of endothelial cells followed by S1P or HMW PEG challenge (TEER). The note with it: challenge 1 μM S1P or 8% HMW PEG. The class given is cell-based.
The test system of data set [4] is human lung microvessel endothelial cells (HLMVEC). The experiment in a line: Transendothelial electrical resistance (TEER) by ECIS, HMW PEG in serum-free EBM. The class given is cell-based. The note with it: TEER.
Data set [5] relates to ERK and MLC phosphorylation. The data set can be described thus: ERK and MLC phosphorylation by Western blot. As to conditions: 1 μM S1P, 5 minutes. The class given is cell-based, human.
For data set [6], the system named is Endothelial cells.
The subject of data set [7] is human pulmonary artery endothelial cells (HPAEC). The data set can be described thus: Reversal of thrombin- or LPS-induced barrier disruption (TEER). The class given is cell-based. The note with it: LPS.

For `C=CCN1C[C@H](C)N([C@H](c2ccc(C(=O)N(CC)CC)cc2)c2cccc(O)c2)C[C@H]1C` [BW373U86], the “PA-I protein (immunoblot)” value in data set [1] is “induced PA-I protein to the same degree as C4-HSL”. The biofilm production entry in data set [2] is recorded as “especially increased with the δ agonist”.
`CCCCCCCCCCCCC/C=C/[C@@H](O)[C@@H](N)COP(=O)(O)O` [S1P, sphingosine 1-phosphate]: the “intracellular calcium on stimulation of ECs” value with HPAECs was “induced intracellular calcium spikes”. Also, the “effect of PMA pretreatment on the response to stimulation” value with Endothelial cells [3] (pretreated 100 nM PMA 24 hours) is “Blocked”. The “effect of PTX pretreatment on the response to stimulation” value in the data set on Endothelial cells [3] (pretreated 100 ng/ml PTX 4 hours) is listed as “Blocked”. Also, the “effect of S1P pretreatment on the response to stimulation” value in the data set on Endothelial cells [3] (pretreated 1 μM S1P 24 hours) is “No effect”. The “effect of FTY720 pretreatment on the response to stimulation” value in the data set on Endothelial cells [3] (pretreated 10 μM FTY720 24 hours) is on record as “Blunted”. In the data set on Endothelial cells [3] (pretreated 10 μM FTY analog 24 hours), the “effect of FTY analog pretreatment on the response to stimulation” value is given as “Blunted”. Moreover, in data set [4], the “time to maximum barrier enhancing effect” value was in the range of 10 to 15 min. The “increase in resistance (maximum barrier enhancing effect)” value in data set [4] (human pulmonary microvessel EC) worked out at 40%. Also, the ERK phosphorylation result in data set [5] is recorded as “drastic increase in ERK phosphorylation”.
“High Molecular Weight PolyEthylene Glycol [HMW PEG]”: in the data set on Endothelial cells [6], the “exotoxin A-induced cytotoxicity” value is given as “completely protected”.
As to lipopolysaccharide [LPS], the “duration of decrease in barrier resistance” value in data set [7] is “over 20 hours”.

The values are drawn from patent publication US20090186949A1, “Method for Treating Endothelial and Epithelial Cell Disorders by Administering High Molecular Weight PEG-Like Compounds” (THE UNIVERSITY OF CHICAGO, priority 2006, published 2009).
